{
  "source": "ChEMBL document CHEMBL4265913",
  "about": "“Role of p53 circuitry in tumorigenesis: A brief review” (Eur J Med Chem, 2018)",
  "key": {"SH-SY5Y": {"system": "SH-SY5Y", "assay": "Antiproliferative activity against human SH-SY5Y cells after 72 hrs by XTT assay", "assay_type": "functional, cell-based"}, "IMR-32": {"system": "IMR-32", "assay": "Antiproliferative activity against human IMR32 cells after 72 hrs by XTT assay", "assay_type": "functional, cell-based", "conditions": "IMR-32, 72 h"}, "[1]": {"assay": "Antiproliferative activity against human LAN5 cells after 72 hrs by XTT assay", "assay_type": "functional, cell-based", "conditions": "LA-N-5, 72 h"}, "IMR-5": {"system": "IMR-5", "assay": "Antiproliferative activity against human IMR5 cells after 72 hrs by XTT assay", "assay_type": "functional, cell-based", "conditions": "IMR-5, 72 h"}, "SK-N-SH": {"system": "SK-N-SH", "assay": "Antiproliferative activity against human SK-N-SH cells after 72 hrs by XTT assay", "assay_type": "functional, cell-based"}, "PC-3": {"system": "PC-3", "assay": "Growth inhibition of human PC3 cells harboring p53 deletion mutant after 4 days by WST8 assay", "assay_type": "functional, cell-based", "conditions": "PC-3, 96 h"}, "[2]": {"molecular_target": "E3 ubiquitin-protein ligase Mdm2 (Homo sapiens, UniProt Q00987)", "sequence (Q00987 whole entry, the tested form may be a part)": "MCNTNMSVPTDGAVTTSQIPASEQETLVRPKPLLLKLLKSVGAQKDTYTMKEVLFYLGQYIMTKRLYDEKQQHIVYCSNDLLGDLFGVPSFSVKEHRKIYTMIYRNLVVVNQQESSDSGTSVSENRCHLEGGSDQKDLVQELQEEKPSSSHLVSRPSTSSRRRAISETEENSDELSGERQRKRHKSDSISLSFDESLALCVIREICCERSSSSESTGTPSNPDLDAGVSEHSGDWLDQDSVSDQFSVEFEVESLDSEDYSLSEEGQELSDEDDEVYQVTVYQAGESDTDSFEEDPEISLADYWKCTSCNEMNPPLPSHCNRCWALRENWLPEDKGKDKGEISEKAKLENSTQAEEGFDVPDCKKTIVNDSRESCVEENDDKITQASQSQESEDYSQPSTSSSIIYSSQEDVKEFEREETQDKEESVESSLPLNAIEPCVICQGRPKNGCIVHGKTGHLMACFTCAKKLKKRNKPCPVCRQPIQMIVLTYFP", "assay": "Binding affinity to recombinant human MDM2 (1 to 118 residues) expressed in Escherichia coli BL21 (DE3) assessed as reduction in tryptophan fluorescence by microscale thermophoresis method"}, "U2OS": {"system": "U2OS", "assay": "Antiproliferative activity against human U2OS cells after 72 hrs by MTT assay", "assay_type": "functional, cell-based"}},
  "data": [
    {"smiles": "CC1(C)CCC2(CC1)N[C@H](C(=O)N[C@H]1CC[C@H](C(N)=O)OC1)[C@@H](c1ccnc(Cl)c1F)[C@@]21C(=O)Nc2cc(Cl)ccc21", "values": [
      {"measurement": "IC50", "setting": "SH-SY5Y", "result": 17.7, "unit": "nM"},
      {"measurement": "IC50", "setting": "IMR-32", "result": 52.6, "unit": "nM"},
      {"measurement": "IC50", "setting": "[1]", "result": 44.1, "unit": "nM"},
      {"measurement": "IC50", "setting": "IMR-5", "result": 25.7, "unit": "nM"},
      {"measurement": "IC50", "setting": "SK-N-SH", "result": 21.9, "unit": "nM"}
    ]},
    {"smiles": "CN(C)C(=O)[C@@H]1N[C@H](CC(C)(C)C)[C@]2(C(=O)Nc3cc(Cl)ccc32)[C@H]1c1cccc(Cl)c1", "values": [
      {"measurement": "IC50", "setting": "PC-3", "result": 22500, "unit": "nM"}
    ]},
    {"smiles": "CN1C(=O)C(Cc2ccc(Cl)cc2)=C(c2c[nH]c3cc(Cl)ccc23)[C@]1(O)Cc1ccc(Cl)cc1", "values": [
      {"measurement": "Kd", "setting": "[2]", "result": 500, "unit": "nM"}
    ]},
    {"smiles": "Clc1ccc(C2N=C(c3ccccc3)c3cc(Cl)ccc3-n3cnnc32)cc1", "note": "(stereo not drawn)", "values": [
      {"measurement": "IC50", "setting": "U2OS", "result": 4170, "unit": "nM"}
    ]}
  ]
}
